Format in all cases: cell-based
The subject of one test is MOLM-14. The test is described as follows: Cell growth suppression test in monotherapy (resazurin). To be noted: Homo sapiens, read-out: Cell growth suppression activity IC50. The method, then:
(§1) A human acute monocytic leukemia cell line (THP-1), a human acute myeloid leukemia cell line (MV-4-11), a human acute monocytic leukemia cell line (MOLM-14), and a human erythroleukemia cell line (TF-1) were cultured in a 5% CO2 incubator using a RPMI1640 medium (Roswell Park Memorial Institute medium, nacalai tesque) comprising 10% Fetal bovine serum (Thermo Scientific, SIGMA-ALDRICH, or Cytiva) and 1% penicillin/streptomycin (nacalai tesque).
(§2) THP-1 cells and MV-4-11 cells at 2×10^4 cells/well, and MOLM-14 cells and TF-1 cells at 5×10^3 cells/well were each seeded to a 96 well plate (cell plate), and thereto was added a test compound diluted with the medium so that the final concentration thereof would be 3 nM to 30 µM (final DMSO concentration: 0.3%). After the resulting mixture was cultured for 72 hours, a resazurin reagent (nacalai tesque) was added thereto. After 3 hours, a fluorescence at an excitation wavelength of 560 nm and a fluorescence wavelength of 590 nm was measured, and each IC50 value of the inhibitory activity was calculated by a criterion in which a well without the compound and without the cells was set to be 100%, and a well without the compound and with cells was set to be 0%.

Another test deals with MV-4-11. The test is described as above. To be noted: Homo sapiens, read-out: Cell growth suppression activity IC50. The method, then: as §1, §2
The next test relates to THP-1. The test is described as above. To be noted: Homo sapiens, read-out: Cell growth suppression activity IC50. The protocol: as §1, §2
The next test relates to TF-1. The description is as above. To be noted: Homo sapiens, read-out: Cell growth suppression activity IC50. The method, then: as §1, §2
In a further test the test system is THP-1 cells. The test is described as follows: Dose-response test of DNA methyltransferase inhibitor in the presence of compound (I). To be noted: Homo sapiens, read-out: THP-1 cell growth suppression activity azacitidine IC50 (converted). The protocol:
as §2
Changes in the IC50 value of a DNA methyltransferase inhibitor (azacitidine) in the presence of the compound (I) were investigated.

The mark [1] stands for this setting: MOLM-14 cells, monotherapy, cultured for 72 hours.
[2] abbreviates: MV4-11, MV-4-11 cells, monotherapy, cultured for 72 hours.
The mark [3] stands for this setting: THP-1 cells, monotherapy, cultured for 72 hours.
[4] abbreviates: TF-1 cells, monotherapy, cultured for 72 hours.

The text below walks through data of patent EP4785942A1, “NOVEL COMBINATION THERAPY FOR BLOOD CANCER” (Carna Biosciences, Inc., priority 2023, dated 2025).

The term IC50 denotes the concentration needed to halve the response being measured.

Where two headings read alike, the source gives them in different places.

As for `Nc1ncn([C@H]2C[C@H](O)[C@@H](CO)O2)c(=O)n1` [Decitabine, decitabine], the IC50 was 160 nM in the test on MOLM-14 (MOLM-14, 72 h); 540 nM in the test with MV-4-11 (MV4-11, 72 h); greater than 30000 nM in the test on THP-1 (THP-1, 72 h); 120 nM in the test with TF-1 (TF-1, 72 h).

Regarding `Nc1ncn([C@@H]2O[C@H](CO)[C@@H](O)[C@H]2O)c(=O)n1` [Azacitidine, azacitidine], the half-maximal inhibitory concentration (IC50) in the test with THP-1 cells (THP-1, Concentration of compound (I) 0 µM (DMSO-added control)) was 6930 nM; in the test on THP-1 cells (THP-1, Concentration of compound (I) 3 µM), 2030 nM; in the test on MOLM-14 (setting [1]), 2850 nM; in the test with MV-4-11 (setting [2]), 1200 nM; in the test on THP-1 (setting [3]), 7390 nM; with TF-1 (setting [4]), 1920 nM.

For `CCOC(=O)C1=C(NN2CCN(CC(F)(F)F)CC2)O/C(=C\c2c[nH]c3ncccc23)C1=O` [Compound (I), ethyl 5-[(1H-pyrrolo[2,3-b]pyridin-3-yl)methylene]-4-oxo-2-{[4-(2,2,2-trifluoroethyl)piperazinyl]amino}-4,5-dihydrofuran-3-carboxylate], the IC50 with MOLM-14 (setting [1]) is 160 nM; in the test with MV-4-11 (setting [2]), 190 nM; in the test on THP-1 (setting [3]), 4070 nM; with TF-1 (setting [4]), 340 nM.
